Assay results: patent US11976072B2, “Diacylglycerol kinase modulating compounds” (priority 2021, dated 2024)
Read-outs that look alike come from different tables or passages of the source.

Assays:
human DGKα = human DGKα (Homo sapiens, UniProt P23743); assay: DGKα Biochemical Activity Assay (ADP-Glo); details: recombinant DGKα 1 nM, 100 μM ATP, 18:1 DAG/POPS/octylglucoside micelles, 1 hour at 25° C.; geometric mean; read-out: HTBS DGKa 1X ATP KM IC50;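 note: luminescent detection of ADP produced as DGKα phosphorylates DAG to phosphatidic acid, IC50 from four-parameter nonlinear curve fit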
Sequence of human DGKα (P23743 whole entry): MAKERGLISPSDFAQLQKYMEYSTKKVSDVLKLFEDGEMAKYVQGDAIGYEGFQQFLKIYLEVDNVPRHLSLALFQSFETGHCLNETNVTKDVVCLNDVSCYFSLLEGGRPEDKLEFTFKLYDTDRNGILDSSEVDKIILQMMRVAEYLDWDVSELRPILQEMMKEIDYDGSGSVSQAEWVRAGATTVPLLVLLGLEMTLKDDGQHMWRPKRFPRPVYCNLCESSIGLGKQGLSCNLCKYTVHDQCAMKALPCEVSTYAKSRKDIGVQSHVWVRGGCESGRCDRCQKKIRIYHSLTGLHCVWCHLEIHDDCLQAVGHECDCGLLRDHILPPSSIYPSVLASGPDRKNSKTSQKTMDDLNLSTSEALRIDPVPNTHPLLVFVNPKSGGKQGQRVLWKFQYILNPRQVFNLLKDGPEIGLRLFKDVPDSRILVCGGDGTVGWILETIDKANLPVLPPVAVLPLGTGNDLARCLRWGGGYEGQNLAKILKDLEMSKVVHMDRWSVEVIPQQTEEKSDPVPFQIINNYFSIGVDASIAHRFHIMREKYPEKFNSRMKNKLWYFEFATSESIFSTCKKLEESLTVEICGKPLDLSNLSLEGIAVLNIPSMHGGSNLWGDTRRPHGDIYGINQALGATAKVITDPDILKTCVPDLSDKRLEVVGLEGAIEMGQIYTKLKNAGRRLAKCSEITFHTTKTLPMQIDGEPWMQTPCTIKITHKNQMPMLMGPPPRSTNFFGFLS

[1] = system: Jurkat NFκB-luciferase cells; assay: Jurkat NFκB-Luciferase Assay; type: cell-based; details: Homo sapiens
Experimental: The day after, the excess antibody was washed out five times with 100 ul/well of assay medium (RPMI supplemented with 10% fetal bovine serum) using a Biotek EL406 instrument and leaving 20 ul of residual volume in each well. Jurkat NFκB-luciferase cells (Promega #) were harvested and diluted to 1 million cells/ml in assay medium. […] Thirty microliters of medium containing the Jurkat NFκB-luciferase cells were then dispensed using a Biotek MicroFlo instrument in each well of the compound-containing plate. […] Forty microliters of One-Glo Ex (Promega) was then added to the assay mixture and luciferase activity was read on a Envision plate reader 7 minutes later.

[2] = Jurkat NFκB-luciferase cells activated with anti-CD3 antibody (OKT3), 2.5 hrs at 37° C., geometric mean, read-out: DGK NFKb Luciferase EC50
[3] = Jurkat, […], read-out: DGK NFKb Luciferase EC50 (nM)

Row | SMILES | IC50 (human DGKα) [nM] | EC50 [1, 2] [nM] | EC50 [1, 3] [nM]
1 | Cc1nnc2nc(N3CCCc4c(C#CC5(C)COC5)cccc43)c3cc(F)ccc3n12 [Example 29, 7-fluoro-1-methyl-5-(5-((3-methyloxetan-3-yl)ethynyl)-3,4-dihydroquinolin-1(2H)-yl)-[1,2,4]triazolo[4,3-a]quinazoline] | 3.31 | 0.66 | 
2 | Cc1nnc2nc(N3CCCc4c(C#CC5CCC5)cccc43)c3cc(F)ccc3n12 [Example 30, 5-(5-(cyclobutylethynyl)-3,4-dihydroquinolin-1(2H)-yl)-7-fluoro-1-methyl-[1,2,4]triazolo[4,3-a]quinazoline] | 14.7 | 0.163 | 
3 | Cc1nnc2nc(N3CCCc4c(C#CC5(C(C)(F)F)CC5)cccc43)c3cc(F)ccc3n12 [Example 31, 5-(5-((1-(1,1-difluoroethyl)cyclopropyl)ethynyl)-3,4-dihydroquinolin-1(2H)-yl)-7-fluoro-1-methyl-[1,2,4]triazolo[4,3-a]quinazoline] | 50.9 | 1.43 | 
4 | Cc1nnc2nc(N3CCCc4c(C#CC5CC(F)(F)C5)cccc43)c3cc(F)ccc3n12 [Example 32, 5-(5-((3,3-difluorocyclobutyl)ethynyl)-3,4-dihydroquinolin-1(2H)-yl)-7-fluoro-1-methyl-[1,2,4]triazolo[4,3-a]quinazoline] | 11 | 0.461 | 
5 | Cc1nnc2nc(N3CCCc4c(C#CC5(C)CC5)cccc43)c3c(Cl)c(F)ccc3n12 [Example 33, 6-chloro-7-fluoro-1-methyl-5-[5-[2-(1-methylcyclopropyl)ethynyl]-3,4-dihydro-2H-quinolin-1-yl]-[1,2,4]triazolo[4,3-a]quinazoline] | 42.4 | 1.59 | 
6 | Cc1nnc2nc(N3CCCc4c(C#CC(C)(C)C(F)F)cccc43)c3c(Cl)c(F)ccc3n12 [Example 34, 6-chloro-5-[5-(4,4-difluoro-3,3-dimethyl-but-1-ynyl)-3,4-dihydro-2H-quinolin-1-yl]-7-fluoro-1-methyl-[1,2,4]triazolo[4,3-a]quinazoline] | 30.4 | 0.907 | 
7 | Cc1nnc2nc(N3CCCc4c(C#CC5(C(F)F)CC5)cccc43)c3c(Cl)c(F)ccc3n12 [Example 35, 6-chloro-5-[5-[2-[1-(difluoromethyl)cyclopropyl]ethynyl]-3,4-dihydro-2H-quinolin-1-yl]-7-fluoro-1-methyl-[1,2,4]triazolo[4,3-a]quinazoline] | 5.44 | 1.14 | 
8 | Cc1nnc2nc(N3CCCc4c(C#CC(C)(C)C#N)cccc43)c3c(Cl)c(F)ccc3n12 [Example 36, 4-[1-(6-chloro-7-fluoro-1-methyl-[1,2,4]triazolo[4,3-a]quinazolin-5-yl)-3,4-dihydro-2H-quinolin-5-yl]-2,2-dimethyl-but-3-ynenitrile] | 9.93 | 1.85 | 
9 | Fc1ccc(Cl)c2c1c(N1CCOCc3c(C#CC4(C(F)F)CC4)cccc31)nc1nncn12 [Example 39, 1-(9-chloro-6-fluoro-[1,2,4]triazolo[4,3-a]quinazolin-5-yl)-6-[2-[1-(difluoromethyl)cyclopropyl]ethynyl]-3,5-dihydro-2H-4,1-benzoxazepine] | 8.31 | 2.18 | 
10 | CC(C)(O)C#Cc1cccc2c1COCCN2c1nc2nncn2c2c(Cl)ccc(F)c12 [Example 40, 4-[1-(9-chloro-6-fluoro-[1,2,4]triazolo[4,3-a]quinazolin-5-yl)-3,5-dihydro-2H-4,1-benzoxazepin-6-yl]-2-methyl-but-3-yn-2-ol] | 12.6 |  | 17.1
11 | Cc1nnc2nc(N(CC(F)F)c3ccnc(C#CC(C)(C)C(F)F)c3F)c3c(F)cccc3n12 [Example 42, N-[2-(4,4-difluoro-3,3-dimethyl-but-1-ynyl)-3-fluoro-4-pyridyl]-N-(2,2-difluoroethyl)-6-fluoro-1-methyl-[1,2,4]triazolo[4,3-a]quinazolin-5-amine] | 6.93 | 2.32 | 
12 | Cc1nnc2nc(N(CC(F)F)c3ccnc(C#CC4(C(F)F)CC4)c3F)c3c(F)cccc3n12 [Example 44, N-(2,2-difluoroethyl)-N-[2-[2-[1-(difluoromethyl)cyclopropyl]ethynyl]-3-fluoro-4-pyridyl]-6-fluoro-1-methyl-[1,2,4]triazolo[4,3-a]quinazolin-5-amine] | 3.81 | 7.15 | 
13 | Cc1nnc2nc(N(CC(F)F)c3ccnc(C#CC(C)(C)O)c3F)c3c(F)cccc3n12 [Example 45, 4-[4-[2,2-difluoroethyl-(6-fluoro-1-methyl-[1,2,4]triazolo[4,3-a]quinazolin-5-yl)amino]-3-fluoro-2-pyridyl]-2-methyl-but-3-yn-2-ol] | 8.25 |  | 329
14 | Fc1cc(C#CC2(C(F)F)CC2)cc(N(CC(F)F)c2nc3nncn3c3c(Cl)cc(F)cc23)c1 [Example 47, 9-chloro-N-(2,2-difluoroethyl)-N-[3-[2-[1-(difluoromethyl)cyclopropyl]ethynyl]-5-fluoro-phenyl]-7-fluoro-[1,2,4]triazolo[4,3-a]quinazolin-5-amine] | 18.8 | 3.92 | 
15 | Fc1cc(C#CC2(C(F)(F)F)CC2)cc(N(CC(F)F)c2nc3nncn3c3c(Cl)cc(F)cc23)c1 [Example 48, 9-chloro-N-(2,2-difluoroethyl)-7-fluoro-N-[3-fluoro-5-[2-[1-(trifluoromethyl)cyclopropyl]ethynyl]phenyl]-[1,2,4]triazolo[4,3-a]quinazolin-5-amine] | 5.73 | 3.02 | 
16 | CC(C)(O)C#Cc1cc(F)cc(N(CC(F)F)c2nc3nncn3c3c(Cl)cc(F)cc23)c1 [Example 50, 4-[3-[(9-chloro-7-fluoro-[1,2,4]triazolo[4,3-a]quinazolin-5-yl)-(2,2-difluoroethyl)amino]-5-fluoro-phenyl]-2-methyl-but-3-yn-2-ol] | 11.9 |  | 16.8
17 | Cc1nnc2nc(N(CC(F)F)c3cccc(C#CC4(C)CC4)c3F)c3c(F)cccc3n12 [Example 52, N-(2,2-difluoroethyl)-6-fluoro-N-[2-fluoro-3-[2-(1-methylcyclopropyl)ethynyl]phenyl]-1-methyl-[1,2,4]triazolo[4,3-a]quinazolin-5-amine] | 7.98 | 0.583 | 
18 | Cc1nnc2nc(N(CC(F)F)c3cccc(C#CC(C)(C)C(F)F)c3F)c3c(F)cccc3n12 [Example 53, N-[3-(4,4-difluoro-3,3-dimethyl-but-1-ynyl)-2-fluoro-phenyl]-N-(2,2-difluoroethyl)-6-fluoro-1-methyl-[1,2,4]triazolo[4,3-a]quinazolin-5-amine] | 18.6 | 0.792 | 

Further compounds by falling IC50 (human DGKα), results first:

Row | IC50 (human DGKα) [nM] | EC50 [1, 2] [nM] | SMILES | EC50 [1, 3] [nM]
19 | 126 | 3.95 | Fc1cc(Cl)c2c(c1)c(N1CCCc3c(C#CC4(C(F)(F)F)CC4)cccc31)nc1nncn12 [Example 38, 9-chloro-7-fluoro-5-[5-[2-[1-(trifluoromethyl)cyclopropyl]ethynyl]-3,4-dihydro-2H-quinolin-1-yl]-[1,2,4]triazolo[4,3-a]quinazoline] | 
20 | 64.8 | 1.88 | Cc1nnc2nc(N3CCCc4c(C#CC5(C(F)(F)F)CC5)cccc43)c3c(Cl)c(F)ccc3n12 [Example 37, 6-chloro-7-fluoro-1-methyl-5-[5-[2-[1-(trifluoromethyl)cyclopropyl]ethynyl]-3,4-dihydro-2H-quinolin-1-yl]-[1,2,4]triazolo[4,3-a]quinazoline] | 
21 | 15.6 | 1.75 | CC(C)(C#Cc1cc(F)cc(N(CC(F)F)c2nc3nncn3c3c(Cl)cc(F)cc23)c1)C(F)F [Example 46, 9-chloro-N-[3-(4,4-difluoro-3,3-dimethyl-but-1-ynyl)-5-fluoro-phenyl]-N-(2,2-difluoroethyl)-7-fluoro-[1,2,4]triazolo[4,3-a]quinazolin-5-amine] | 
22 | 12.4 | 1.36 | CC1(C#Cc2cc(F)cc(N(CC(F)F)c3nc4nncn4c4c(Cl)cc(F)cc34)c2)CC1 [Example 49, 9-chloro-N-(2,2-difluoroethyl)-7-fluoro-N-[3-fluoro-5-[2-(1-methylcyclopropyl)ethynyl]phenyl]-[1,2,4]triazolo[4,3-a]quinazolin-5-amine] | 
23 | 11 | 1.39 | CC(C)(C#Cc1cccc2c1COCCN2c1nc2nncn2c2c(Cl)ccc(F)c12)C(F)F [Example 41, 1-(9-chloro-6-fluoro-[1,2,4]triazolo[4,3-a]quinazolin-5-yl)-6-(4,4-difluoro-3,3-dimethyl-but-1-ynyl)-3,5-dihydro-2H-4,1-benzoxazepine] | 
24 | 9.97 | 1.22 | Cc1nnc2nc(N(CC(F)F)c3ccnc(C#CC(C)(C)C(F)(F)F)c3F)c3c(F)cccc3n12 [Example 43, N-(2,2-difluoroethyl)-6-fluoro-N-[3-fluoro-2-(4,4,4-trifluoro-3,3-dimethyl-but-1-ynyl)-4-pyridyl]-1-methyl-[1,2,4]triazolo[4,3-a]quinazolin-5-amine] | 
25 | 9.49 | 5.09 | Cc1nnc2nc(N3CCCc4c(C#CC5(O)CCC5)cccc43)c3cc(F)ccc3n12 [Example 28, 1-((1-(7-fluoro-1-methyl-[1,2,4]triazolo[4,3-a]quinazolin-5-yl)-1,2,3,4-tetrahydroquinolin-5-yl)ethynyl)cyclobutan-1-ol] | 
26 | 5.01 | 1.92 | Cc1nnc2nc(N(CC(F)F)c3cccc(C#CC4(C(F)F)CC4)c3F)c3c(F)cccc3n12 [Example 51, N-(2,2-difluoroethyl)-N-[3-[2-[1-(difluoromethyl)cyclopropyl]ethynyl]-2-fluoro-phenyl]-6-fluoro-1-methyl-[1,2,4]triazolo[4,3-a]quinazolin-5-amine] | 
